Measured values published in patent US20030220402A1, “Cancer remedy comprising anthranilic acid derivatives as active ingredients” (priority 2000, published 2003).

Tested on: L929 cells
Test: Measurement of cytotoxicity using mouse tumorous cells L929 (Neutral Red assay)
Assay type: cell-based
Details: 3 days culture, concentration manifesting 50% cytotoxicity
Procedure: Measurement of Cytotoxicity Using Mouse Tumorous Cells L929
The cytotoxic activity against tumorous cells was measured according to a Neutral Red assay method [the method described in Journal of Tissue Culture Methodology, vol. 9, p. […] 24, p. […] Namely, 100 μL each of L929 cells (5×10^4 cells/mL, 10% FCS/RPM1) was added to a 96-well ELISA plate, and the cells were cultured overnight. The test compound at each measuring concentration was dissolved in a DMSO solution and added, and culturing was further continued for 3 days. To the cultured cells, was then added 2.0 μL of Neutral Red so as to provide the final concentration of 0.01%. Incubation was conducted at 37° C. for 1 hour, and the cell culture supernatant was removed. The resultant cultured cells were washed with […] of PBS twice to remove the excessive Neutral Red. To the washed cells, was then added 100 μL of a 50% ethanol-1% aqueous acetic acid. The dye incorporated in the cells was extracted, and the amount of the dye was determined by measuring the absorbance at 490 nm. The case where a drug was not added was taken as 100%, and the cytotoxicity was determined at the concentrations of the respective test compounds. […] The measurements under the same conditions in two sets each were made, and the data were, obtained from the average values.

SMILES: O=C(Cc1ccc(Oc2ccc(OC3CCCCC3)cc2)cc1)Nc1ccccc1C(=O)O [compound 288, 2-(4-(4-cyclohexyloxyphenoxy)phenylacetamido)benzoic acid]
- LD50: 0.20 µM

SMILES: O=C(Cc1ccc(Oc2ccc3ccccc3c2)cc1)Nc1ccccc1C(=O)O [Compound No. 59, 2-(4-(2-naphthyloxy)phenylacetamido)benzoic acid]
- LD50: 1.6 µM

SMILES: O=C(Cc1ccc(Oc2ccc(OCc3ccccc3)cc2)cc1)Nc1ccccc1C(=O)O [Compound No. 316, 2-(4-(4-benzyloxyphenoxy)phenylacetamido)benzoic acid]
- LD50: 0.60 µM

SMILES: COC(=O)c1ccccc1NC(=O)Cc1ccc(Oc2ccc(O)cc2)cc1 [Compound No. 296, methyl 2-(4-(4-hydroxyphenoxy)phenylacetamido)benzoate]
- LD50: >5 µM
